Read-outs that look alike come from different tables or passages of the source.
Experiments:
[1] = general statement, no test described; cited from earlier work
OCI-Ly10 = assay: Growth inhibition of OCI-Ly10 (ABC-DLBCL) cells; format: cell-based; conditions: Homo sapiens
Text: See U.S. Pat. No. 7,711,492 and Staudt et al., Nature, Vol. 463, Jan. 7, 2010, pp. 88-92, the contents of which are incorporated by reference in their entirety.

EC50 (OCI-Ly10; continuous exposure, read-out: EC50 continuous exposure (growth of OCI-Ly10)): 10 nM
EC50 (OCI-Ly10; read-out: EC50 1 hour pulse (growth of OCI-Ly10), 1 hour pulse): 50 nM
Structure (SMILES): C=CC(=O)N1CCC[C@@H](n2nc(-c3ccc(Oc4ccccc4)cc3)c3c(N)ncnc32)C1 [Compound 1, 1-((R)-3-(4-amino-3-(4-phenoxyphenyl)-1H-pyrazolo[3,4-d]pyrimidin-1-yl)piperidin-1-yl)prop-2-en-1-one]
Water solubility [1]: very low water solubility

Reference: patent publication US20190290650A1, “FORMULATIONS/COMPOSITIONS COMPRISING A BTK INHIBITOR” (Janssen Pharmaceutic NV, priority 2016, published 2019)
